These results are taken from ChEMBL document CHEMBL1150976, “The selectivity of protein kinase inhibitors: a further update” (Biochem J, 2007).

Assay [1] has as its target Mitogen-activated protein kinase 11 (Homo sapiens) (UniProt Q15759). The assay is described as follows: Percentage p38beta activity remaining in the presence of 0.1uM inhibitor.
Assay [2] concerns the target Homeodomain-interacting protein kinase 3 (Homo sapiens) (UniProt Q9H422). Put plainly: Percentage HIPK3 activity remaining in the presence of 0.1uM inhibitor.
Assay [3] concerns the target Ribosomal protein S6 kinase alpha-5 (Homo sapiens) (UniProt O75582). The assay is described as follows: Percentage MSK1 activity remaining in the presence of 0.1uM inhibitor.
Assay [4] has as its target T1, Serine/threonine-protein kinase D1 (Homo sapiens) (UniProt Q15139).
T1 sequence (whole entry): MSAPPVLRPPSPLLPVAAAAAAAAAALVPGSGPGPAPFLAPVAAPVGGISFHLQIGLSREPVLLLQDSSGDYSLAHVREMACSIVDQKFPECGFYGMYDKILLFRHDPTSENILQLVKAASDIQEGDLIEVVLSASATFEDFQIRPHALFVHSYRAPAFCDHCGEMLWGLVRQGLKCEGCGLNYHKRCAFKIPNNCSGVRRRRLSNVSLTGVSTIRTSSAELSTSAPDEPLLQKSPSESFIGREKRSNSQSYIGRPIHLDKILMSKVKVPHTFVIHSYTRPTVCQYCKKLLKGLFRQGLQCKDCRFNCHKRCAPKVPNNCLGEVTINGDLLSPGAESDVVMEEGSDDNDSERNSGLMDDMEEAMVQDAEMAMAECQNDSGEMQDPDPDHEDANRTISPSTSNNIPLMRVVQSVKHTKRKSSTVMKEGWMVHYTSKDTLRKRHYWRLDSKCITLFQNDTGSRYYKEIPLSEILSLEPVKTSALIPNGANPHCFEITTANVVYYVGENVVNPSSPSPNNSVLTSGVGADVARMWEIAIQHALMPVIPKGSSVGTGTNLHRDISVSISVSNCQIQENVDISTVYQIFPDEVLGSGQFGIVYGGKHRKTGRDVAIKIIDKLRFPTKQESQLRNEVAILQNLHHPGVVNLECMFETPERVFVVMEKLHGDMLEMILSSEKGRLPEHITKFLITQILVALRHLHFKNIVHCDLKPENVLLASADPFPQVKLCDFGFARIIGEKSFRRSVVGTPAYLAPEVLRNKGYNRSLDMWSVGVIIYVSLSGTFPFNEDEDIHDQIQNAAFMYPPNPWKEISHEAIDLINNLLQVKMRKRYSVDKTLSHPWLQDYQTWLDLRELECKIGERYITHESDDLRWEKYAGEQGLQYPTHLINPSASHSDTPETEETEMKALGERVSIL
The assay is described as follows: Percentage PKD1 activity remaining in the presence of 0.1uM inhibitor.

Assay [5] addresses MAP kinase-interacting serine/threonine-protein kinase 2 (Homo sapiens) (UniProt Q9HBH9). The assay is described as follows: Percentage MNK2 activity remaining in the presence of 0.01uM inhibitor.
In assay [6] the target is Protein kinase C alpha type (Homo sapiens) (UniProt P17252). The assay is described as follows: Percentage PKCalpha activity remaining in the presence of 0.01uM inhibitor.
The target in assay [7] is Calcium/calmodulin-dependent protein kinase kinase 2 (Homo sapiens) (UniProt Q96RR4). The assay is described as follows: Percentage CaMKKbeta activity remaining in the presence of 0.01uM inhibitor.
For assay [8], the target named is Dual specificity tyrosine-phosphorylation-regulated kinase 1A (Homo sapiens) (UniProt Q13627). The assay is described as follows: Percentage DYRK1A activity remaining in the presence of 0.01uM inhibitor.
Assay [9] deals with T2, Inhibitor of nuclear factor kappa-B kinase subunit beta (Homo sapiens) (UniProt O14920).
T2 sequence (whole entry): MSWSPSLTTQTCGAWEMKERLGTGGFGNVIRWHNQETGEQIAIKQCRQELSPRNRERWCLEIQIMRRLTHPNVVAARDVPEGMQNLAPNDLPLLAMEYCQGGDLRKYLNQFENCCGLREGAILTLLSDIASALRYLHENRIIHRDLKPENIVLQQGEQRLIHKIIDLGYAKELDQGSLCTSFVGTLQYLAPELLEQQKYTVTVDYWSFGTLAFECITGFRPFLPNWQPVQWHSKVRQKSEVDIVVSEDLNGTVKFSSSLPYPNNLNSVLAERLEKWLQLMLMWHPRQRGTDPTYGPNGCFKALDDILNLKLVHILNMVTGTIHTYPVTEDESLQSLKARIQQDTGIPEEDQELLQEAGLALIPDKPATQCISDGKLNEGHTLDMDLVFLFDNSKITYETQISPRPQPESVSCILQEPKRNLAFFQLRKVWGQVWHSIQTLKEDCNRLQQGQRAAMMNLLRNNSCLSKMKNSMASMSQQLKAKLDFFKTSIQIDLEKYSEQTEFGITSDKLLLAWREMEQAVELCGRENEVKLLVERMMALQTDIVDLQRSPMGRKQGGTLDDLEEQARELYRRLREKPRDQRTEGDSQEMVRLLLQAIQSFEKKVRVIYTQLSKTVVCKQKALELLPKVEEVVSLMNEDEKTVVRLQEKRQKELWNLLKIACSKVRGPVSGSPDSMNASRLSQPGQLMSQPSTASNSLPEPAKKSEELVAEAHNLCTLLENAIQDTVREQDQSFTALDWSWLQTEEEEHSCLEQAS
Put plainly: Percentage IKK-beta activity remaining in the presence of 0.01uM inhibitor.

Assay [10] deals with Tyrosine-protein kinase CSK (Homo sapiens, UniProt P41240). The assay is described as follows: Percentage CSK activity remaining in the presence of 0.01uM inhibitor.
In assay [11] the target is Aurora kinase B (Homo sapiens, UniProt Q96GD4). Put plainly: Percentage Aurora B activity remaining in the presence of 0.01uM inhibitor.
The target in assay [12] is Rho-associated protein kinase 2 (Homo sapiens) (UniProt O75116). The assay is described as follows: Percentage ROCK2 activity remaining in the presence of 0.01uM inhibitor.
In assay [13] the target is T3, Serine/threonine-protein kinase 3 (Homo sapiens) (UniProt Q13188).
T3 sequence (whole entry): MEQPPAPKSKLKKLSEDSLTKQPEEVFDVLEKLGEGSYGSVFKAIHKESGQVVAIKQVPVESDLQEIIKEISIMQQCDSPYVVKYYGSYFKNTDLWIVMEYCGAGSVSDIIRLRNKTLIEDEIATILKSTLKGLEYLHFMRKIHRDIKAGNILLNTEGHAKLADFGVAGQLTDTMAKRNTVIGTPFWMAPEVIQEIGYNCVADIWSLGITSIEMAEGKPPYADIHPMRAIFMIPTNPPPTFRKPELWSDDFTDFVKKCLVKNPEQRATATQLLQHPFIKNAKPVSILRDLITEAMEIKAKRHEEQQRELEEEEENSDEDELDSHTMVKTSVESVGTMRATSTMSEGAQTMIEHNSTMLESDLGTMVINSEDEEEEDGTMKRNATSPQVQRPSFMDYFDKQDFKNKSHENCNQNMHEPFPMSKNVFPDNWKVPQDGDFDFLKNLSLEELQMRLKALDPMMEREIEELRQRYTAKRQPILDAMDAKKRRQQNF
Put plainly: Percentage MST2 activity remaining in the presence of 0.01uM inhibitor.

Assay [14] deals with Dual specificity mitogen-activated protein kinase kinase 1 (Homo sapiens) (UniProt Q02750). Put plainly: Percentage MKK1 activity remaining in the presence of 0.01uM inhibitor.
Dual specificity mitogen-activated protein kinase kinase 1 (Homo sapiens), sequence (Q02750 whole entry): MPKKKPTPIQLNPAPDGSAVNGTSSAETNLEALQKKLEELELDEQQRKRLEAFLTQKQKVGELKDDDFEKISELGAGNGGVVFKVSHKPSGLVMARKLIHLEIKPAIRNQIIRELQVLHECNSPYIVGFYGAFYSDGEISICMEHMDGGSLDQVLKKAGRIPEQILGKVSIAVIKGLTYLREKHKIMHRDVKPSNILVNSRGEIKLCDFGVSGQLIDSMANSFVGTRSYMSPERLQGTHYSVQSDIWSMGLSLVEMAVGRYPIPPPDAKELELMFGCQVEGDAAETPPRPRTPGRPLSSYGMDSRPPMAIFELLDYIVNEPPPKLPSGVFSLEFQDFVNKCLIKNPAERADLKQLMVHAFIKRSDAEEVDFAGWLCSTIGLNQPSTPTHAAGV

MAP kinase-interacting serine/threonine-protein kinase 2 (Homo sapiens), sequence (Q9HBH9 whole entry, looked up): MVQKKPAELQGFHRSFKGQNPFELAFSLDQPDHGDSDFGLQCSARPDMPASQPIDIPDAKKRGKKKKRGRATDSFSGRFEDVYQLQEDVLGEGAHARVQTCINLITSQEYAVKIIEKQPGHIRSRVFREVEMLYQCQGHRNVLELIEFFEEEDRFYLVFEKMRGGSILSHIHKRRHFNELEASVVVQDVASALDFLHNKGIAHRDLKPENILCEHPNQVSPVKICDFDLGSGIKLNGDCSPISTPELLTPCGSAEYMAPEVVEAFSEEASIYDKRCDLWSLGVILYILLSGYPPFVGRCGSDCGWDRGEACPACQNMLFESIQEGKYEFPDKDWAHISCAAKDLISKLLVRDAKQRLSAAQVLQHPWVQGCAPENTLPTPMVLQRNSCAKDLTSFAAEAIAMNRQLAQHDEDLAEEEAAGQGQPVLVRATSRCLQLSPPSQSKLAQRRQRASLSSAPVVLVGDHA
Calcium/calmodulin-dependent protein kinase kinase 2 (Homo sapiens), sequence (Q96RR4 2-588 limits assumed): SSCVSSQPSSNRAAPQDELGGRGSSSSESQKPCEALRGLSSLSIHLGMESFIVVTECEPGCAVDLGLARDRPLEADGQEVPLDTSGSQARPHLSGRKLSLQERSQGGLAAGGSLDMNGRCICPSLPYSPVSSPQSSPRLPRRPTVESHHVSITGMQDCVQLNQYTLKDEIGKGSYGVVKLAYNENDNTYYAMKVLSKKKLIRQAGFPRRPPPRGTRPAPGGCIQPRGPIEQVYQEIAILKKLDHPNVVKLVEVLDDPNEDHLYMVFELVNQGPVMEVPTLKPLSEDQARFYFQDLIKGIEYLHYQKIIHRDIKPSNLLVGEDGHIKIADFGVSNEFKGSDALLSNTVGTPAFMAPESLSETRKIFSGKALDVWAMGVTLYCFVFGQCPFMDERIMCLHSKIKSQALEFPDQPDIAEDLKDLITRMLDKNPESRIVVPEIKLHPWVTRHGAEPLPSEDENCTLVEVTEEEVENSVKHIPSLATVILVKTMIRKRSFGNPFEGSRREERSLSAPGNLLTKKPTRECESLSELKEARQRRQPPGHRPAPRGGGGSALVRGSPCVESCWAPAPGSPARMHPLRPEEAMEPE
Aurora kinase B, sequence (Q96GD4 whole entry): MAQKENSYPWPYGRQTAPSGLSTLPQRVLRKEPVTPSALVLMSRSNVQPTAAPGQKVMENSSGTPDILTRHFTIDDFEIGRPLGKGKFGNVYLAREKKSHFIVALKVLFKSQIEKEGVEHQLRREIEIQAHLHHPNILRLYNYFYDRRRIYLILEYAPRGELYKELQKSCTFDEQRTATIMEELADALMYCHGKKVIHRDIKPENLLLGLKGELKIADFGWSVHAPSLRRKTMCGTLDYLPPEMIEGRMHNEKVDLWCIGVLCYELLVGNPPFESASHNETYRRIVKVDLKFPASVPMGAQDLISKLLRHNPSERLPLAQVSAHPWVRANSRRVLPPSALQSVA
Tyrosine-protein kinase CSK, sequence (P41240 2-450 limits assumed): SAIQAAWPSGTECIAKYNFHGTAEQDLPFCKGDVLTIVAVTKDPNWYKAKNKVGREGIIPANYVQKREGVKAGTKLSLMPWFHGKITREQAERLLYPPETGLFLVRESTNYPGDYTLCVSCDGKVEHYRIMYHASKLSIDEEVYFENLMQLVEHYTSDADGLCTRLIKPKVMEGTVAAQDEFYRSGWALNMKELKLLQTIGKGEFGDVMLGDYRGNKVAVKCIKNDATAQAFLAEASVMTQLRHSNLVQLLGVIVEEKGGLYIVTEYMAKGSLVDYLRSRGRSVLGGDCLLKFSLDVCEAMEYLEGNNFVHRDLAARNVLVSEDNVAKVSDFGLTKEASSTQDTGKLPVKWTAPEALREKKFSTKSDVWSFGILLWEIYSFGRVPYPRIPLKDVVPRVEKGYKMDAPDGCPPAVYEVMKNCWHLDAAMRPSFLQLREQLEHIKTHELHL
Rho-associated protein kinase 2 (Homo sapiens), sequence (O75116 whole entry, looked up): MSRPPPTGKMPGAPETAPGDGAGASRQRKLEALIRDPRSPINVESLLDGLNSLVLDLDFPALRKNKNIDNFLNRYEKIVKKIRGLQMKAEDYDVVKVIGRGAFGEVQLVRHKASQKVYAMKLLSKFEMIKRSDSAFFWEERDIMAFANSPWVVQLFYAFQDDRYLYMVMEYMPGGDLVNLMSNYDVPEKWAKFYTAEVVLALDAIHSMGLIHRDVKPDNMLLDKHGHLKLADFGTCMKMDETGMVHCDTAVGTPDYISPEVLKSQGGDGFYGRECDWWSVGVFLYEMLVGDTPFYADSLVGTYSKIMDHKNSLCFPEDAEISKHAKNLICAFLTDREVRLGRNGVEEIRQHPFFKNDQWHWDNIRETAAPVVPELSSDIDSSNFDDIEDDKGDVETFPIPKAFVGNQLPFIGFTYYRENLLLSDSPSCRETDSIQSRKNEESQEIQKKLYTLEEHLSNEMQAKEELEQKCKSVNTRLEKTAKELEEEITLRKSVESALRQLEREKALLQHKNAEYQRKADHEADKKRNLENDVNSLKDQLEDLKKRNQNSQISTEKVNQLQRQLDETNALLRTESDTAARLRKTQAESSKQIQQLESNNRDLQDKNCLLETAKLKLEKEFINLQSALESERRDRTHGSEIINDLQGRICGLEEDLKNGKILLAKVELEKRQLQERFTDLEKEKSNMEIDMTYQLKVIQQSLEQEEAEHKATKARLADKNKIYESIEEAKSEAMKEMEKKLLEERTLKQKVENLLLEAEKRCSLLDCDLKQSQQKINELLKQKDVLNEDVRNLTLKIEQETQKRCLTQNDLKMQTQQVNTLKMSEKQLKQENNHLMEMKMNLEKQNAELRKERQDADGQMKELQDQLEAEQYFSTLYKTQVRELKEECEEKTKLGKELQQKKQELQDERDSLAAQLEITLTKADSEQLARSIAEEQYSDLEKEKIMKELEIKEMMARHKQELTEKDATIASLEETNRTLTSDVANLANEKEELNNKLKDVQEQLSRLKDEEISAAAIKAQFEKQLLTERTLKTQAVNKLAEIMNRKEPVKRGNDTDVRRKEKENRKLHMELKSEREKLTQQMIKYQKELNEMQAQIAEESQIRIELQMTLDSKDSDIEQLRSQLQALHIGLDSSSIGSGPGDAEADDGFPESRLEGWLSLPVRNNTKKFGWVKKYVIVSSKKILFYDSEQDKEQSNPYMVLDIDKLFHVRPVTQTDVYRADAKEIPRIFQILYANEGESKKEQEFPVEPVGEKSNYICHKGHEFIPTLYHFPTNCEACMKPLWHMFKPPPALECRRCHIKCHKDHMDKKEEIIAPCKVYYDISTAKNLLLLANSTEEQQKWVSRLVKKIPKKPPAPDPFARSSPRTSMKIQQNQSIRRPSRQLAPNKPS
Mitogen-activated protein kinase 11 (Homo sapiens), sequence (Q15759 whole entry): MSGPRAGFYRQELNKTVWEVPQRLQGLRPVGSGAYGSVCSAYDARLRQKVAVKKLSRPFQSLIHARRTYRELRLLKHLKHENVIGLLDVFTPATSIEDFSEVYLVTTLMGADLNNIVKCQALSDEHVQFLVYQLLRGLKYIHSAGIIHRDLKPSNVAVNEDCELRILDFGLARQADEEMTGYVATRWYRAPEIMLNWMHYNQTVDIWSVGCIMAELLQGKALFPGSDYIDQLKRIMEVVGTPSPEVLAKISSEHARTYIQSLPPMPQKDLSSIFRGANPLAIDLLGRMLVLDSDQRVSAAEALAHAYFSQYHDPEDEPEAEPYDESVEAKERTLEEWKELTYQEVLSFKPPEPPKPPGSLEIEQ
Ribosomal protein S6 kinase alpha-5 (Homo sapiens), sequence (O75582 whole entry, looked up): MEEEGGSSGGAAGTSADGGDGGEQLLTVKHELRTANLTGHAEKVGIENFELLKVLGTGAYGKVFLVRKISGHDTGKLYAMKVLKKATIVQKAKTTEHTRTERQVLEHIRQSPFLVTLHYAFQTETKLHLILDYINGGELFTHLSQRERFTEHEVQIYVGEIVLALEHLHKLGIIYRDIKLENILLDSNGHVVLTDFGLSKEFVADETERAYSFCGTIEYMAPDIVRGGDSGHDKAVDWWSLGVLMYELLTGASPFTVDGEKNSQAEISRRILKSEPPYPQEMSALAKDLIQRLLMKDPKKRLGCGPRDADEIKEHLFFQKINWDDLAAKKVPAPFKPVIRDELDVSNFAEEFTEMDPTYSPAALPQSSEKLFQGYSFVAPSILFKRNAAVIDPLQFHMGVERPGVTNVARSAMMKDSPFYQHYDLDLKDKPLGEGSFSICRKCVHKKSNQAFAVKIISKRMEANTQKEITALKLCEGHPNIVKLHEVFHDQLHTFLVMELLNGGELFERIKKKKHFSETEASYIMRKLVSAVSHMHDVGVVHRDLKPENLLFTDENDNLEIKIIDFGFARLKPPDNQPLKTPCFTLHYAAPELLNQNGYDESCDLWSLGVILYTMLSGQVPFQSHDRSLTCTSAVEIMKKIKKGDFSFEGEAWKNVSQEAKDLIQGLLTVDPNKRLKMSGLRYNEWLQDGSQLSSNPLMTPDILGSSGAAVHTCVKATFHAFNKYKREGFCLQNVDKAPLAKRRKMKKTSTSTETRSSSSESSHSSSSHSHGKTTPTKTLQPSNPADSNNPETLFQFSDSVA

Take `CC(C)CCN1c2nc(Nc3cc(F)c(O)c(F)c3)ncc2N(C)C(=O)C1C` (stereo not given): the Activity in [1] came out at 100%; in [2], 104%; in assay [3], 125%; in assay [4], 63%.
Regarding `CC(C)[C@H](CO)Nc1nc(Nc2cccc(Cl)c2)c2ncn(C(C)C)c2n1` [PURVALANOLA], the Activity came out at 90% in [1], 89% in assay [3] and 85% in assay [4].
Regarding `Cn1cc(C2=C(c3cn(CCCSC(=N)N)c4ccccc34)C(=O)NC2=O)c2ccccc21`, the Activity in assay [1] is 99%; in assay [2] it was 78%; in assay [3] (filed as antagonist), 11%; in [4] it was 66%.
In the case of `Cc1n[nH]c2ccc(-c3cncc(OC[C@@H](N)Cc4c[nH]c5ccccc45)c3)cc12`, the Activity in assay [5] is 97%; in [1], 105%; in assay [2], 71%; in [6], 73%; in assay [7], 83%; in assay [8] (filed as antagonist), 10%. The Activity in assay [9] was 93%; in assay [3] (filed as antagonist), 9%; in [10], 99%; in [11], 81%; in [12] (filed as antagonist) it was 48%; in [4] (filed as antagonist), 23%. Moreover, the figures for the Activity in assay [13] and in [14] were 76% and 84%, respectively.
Consider `O=C(NCCCNc1nc(Nc2cccc(NC(=O)N3CCCC3)c2)ncc1I)c1cccs1`, for which the Activity was 47% in assay [5] (filed as antagonist); 71% in [1]; 94% in [2]; 105% in assay [6]; 82% in assay [7]; 94% in assay [8]. Also, the Activity in [9] is 108%; in [3] it was 84%; in assay [10], 114%; in [11] (filed as antagonist), 17%; in assay [12], 90%; in [4] (filed as antagonist) it was 38%. Further, the Activity in assay [13] was 96%; in assay [14], 50%.
For the compound `Cn1c2ccccc2c2c3c(c4c5ccccc5n(CCC#N)c4c21)CNC3=O`, the Activity in assay [1] is 100%; in [2] it was 74%; in [3] (filed as antagonist) it was 6%; in assay [4] (filed as antagonist) it was 5%.
As to `CN[C@@H]1C[C@H]2O[C@@](C)([C@@H]1OC)n1c3ccccc3c3c4c(c5c6ccccc6n2c5c31)C(=O)N[C@H]4O` (stereo in doubt), the Activity in [5] was 103%; in assay [6] (filed as antagonist), 6%; in assay [7] (filed as antagonist) it was 21%; in assay [8] it was 90%; in [9] it was 86%; in [10], 80%. The Activity in [11] was 59%; in [12] it was 86%; in assay [13] (filed as antagonist) it was 2%; in [14], 75%.
Regarding `CN(C)C[C@@H]1CCn2cc(c3ccccc32)C2=C(C(=O)NC2=O)c2cn(c3ccccc23)CCO1`, the Activity in [1] was 109%; in assay [3] (filed as antagonist), 44%.
